Results: ChEMBL document CHEMBL1158609, “Potent antimicrobial activity of 3-(4,5-diaryl-1H-imidazol-2-yl)-1H-indole derivatives against methicillin-resistant Staphylococcus aureus” (2010)
Converted amounts (≈) assume the structure as drawn.

Columns and labels:
[1] = system: Staphylococcus aureus; test: Antimicrobial activity against methicillin-susceptible Staphylococcus aureus; format: functional
[2] = system: Staphylococcus aureus; test: Antimicrobial activity against methicillin-resistant Staphylococcus aureus; format: functional
[3] = system: Bacillus subtilis; test: Antimicrobial activity against Bacillus subtilis ATCC 6633; format: functional
[4] = system: Streptococcus dysgalactiae; test: Antimicrobial activity against Streptococcus dysgalactiae ATCC 12388; format: functional
[5] = system: Streptococcus pyogenes; test: Antimicrobial activity against Streptococcus pyogenes ATCC 19615; format: functional
[6] = system: Streptococcus pyogenes; test: Antimicrobial activity against Streptococcus pyogenes ATCC 12386; format: functional
[7] = system: Salmonella enterica; test: Antimicrobial activity against Salmonella Typhimurium ATCC 13311; format: functional, Salmonella enterica subsp. enterica serovar Typhimurium
[8] = system: Streptococcus dysgalactiae; test: Antimicrobial activity against Streptococcus dysgalactiae ATCC 12394; format: functional
[9] = system: Pseudomonas aeruginosa; test: Antimicrobial activity against Pseudomonas aeruginosa ATCC 39324; format: functional
[10] = system: Micrococcus luteus; test: Antimicrobial activity against Micrococcus luteus ATCC 10240; format: functional
[11] = system: Streptococcus agalactiae; test: Antimicrobial activity against Streptococcus agalactiae ATCC 13813; format: functional
[12] = system: Escherichia coli; test: Antimicrobial activity against Escherichia coli ATCC 12435; format: functional
[13] = system: Pseudomonas aeruginosa; test: Antimicrobial activity against Pseudomonas aeruginosa ATCC 19142; format: functional
[14] = system: Staphylococcus saprophyticus; test: Antimicrobial activity against Staphylococcus saprophyticus ATCC 15305; format: functional
[15] = system: Staphylococcus epidermidis; test: Antimicrobial activity against Staphylococcus epidermidis ATCC 13518; format: functional
[16] = system: Streptococcus pneumoniae; test: Antimicrobial activity against Streptococcus pneumoniae ATCC 49150; format: functional
[17] = system: Enterococcus faecalis; test: Antimicrobial activity against Enterococcus faecalis ATCC 29212; format: functional
[18] = system: Enterococcus faecalis; test: Antimicrobial activity against Enterococcus faecalis ATCC 51559; format: functional
[19] = system: Escherichia coli; test: Antimicrobial activity against Escherichia coli ATCC 35333; format: functional
[20] = system: Enterococcus faecalis; test: Antimicrobial activity against Enterococcus faecalis ATCC 51299; format: functional
[21] = system: Staphylococcus epidermidis; test: Antimicrobial activity against Staphylococcus epidermidis ATCC 12228; format: functional
[22] = system: Salmonella enterica; test: Antimicrobial activity against Salmonella Typhimurium ATCC 14028; format: functional, Salmonella enterica subsp. enterica serovar Typhimurium
[23] = system: Staphylococcus epidermidis; test: Antimicrobial activity against Staphylococcus epidermidis ATCC 35983; format: functional
[24] = system: Bacillus subtilis; test: Antimicrobial activity against Bacillus subtilis ATCC 14579; format: functional
[25] = system: Streptococcus sanguinis; test: Antimicrobial activity against Streptococcus sanguinis ATCC 10556; format: functional

Cc1[nH]c2ccccc2c1-c1nc(-c2ccc(Cl)cc2)c(-c2ccc(Cl)cc2)[nH]1
MIC [1]: 4 µg/mL (≈ 9.56 µM) | MIC [2]: 4 µg/mL (≈ 9.56 µM)

Cc1onc(-c2ccccc2)c1C(=O)N[C@@H]1C(=O)N2[C@@H]1SC(C)(C)[C@@H]2C(=O)O [OXACILLIN]
MIC [1]: 0.5 µg/mL (≈ 1.25 µM) | MIC [2]: > 16 µg/mL

Brc1ccc2[nH]cc(-c3nc(-c4ccc(-c5ccccc5)cc4)c(-c4ccc(-c5ccccc5)cc4)[nH]3)c2c1
MIC [1]: > 64 µg/mL

Brc1ccc2[nH]cc(-c3nc(-c4ccc(Oc5ccccc5)cc4)c(-c4ccc(Oc5ccccc5)cc4)[nH]3)c2c1
MIC [1]: > 64 µg/mL

Cc1[nH]c2ccccc2c1-c1nc(-c2ccc(-c3ccccc3)cc2)c(-c2ccc(-c3ccccc3)cc2)[nH]1
MIC [1]: > 64 µg/mL

Cc1[nH]c2ccccc2c1-c1nc(-c2ccccc2)c(-c2ccccc2)[nH]1
MIC [1]: 8 µg/mL (≈ 22.9 µM) | MIC [2]: 4 µg/mL (≈ 11.4 µM)

Cc1[nH]c2ccccc2c1-c1nc(-c2ccc(-c3ccccc3)cc2)c(-c2ccccc2)[nH]1
MIC [1]: 4 µg/mL (≈ 9.4 µM) | MIC [2]: 2 µg/mL (≈ 4.7 µM)

Fc1ccc(-c2nc(-c3c[nH]c4ccc(Br)cc34)[nH]c2-c2ccc(F)cc2)cc1
MIC [3]: 2 µg/mL (≈ 4.44 µM) | MIC [4]: 2 µg/mL (≈ 4.44 µM) | MIC [5]: 2 µg/mL (≈ 4.44 µM) | MIC [6]: 2 µg/mL (≈ 4.44 µM) | MIC [7]: > 64 µg/mL | MIC [8]: 2 µg/mL (≈ 4.44 µM) | MIC [1]: 1 µg/mL (≈ 2.22 µM) | MIC [9]: > 64 µg/mL | MIC [10]: 1 µg/mL (≈ 2.22 µM) | MIC [11]: 2 µg/mL (≈ 4.44 µM) | MIC [12]: > 64 µg/mL | MIC [13]: > 64 µg/mL | MIC [14]: 2 µg/mL (≈ 4.44 µM) | MIC [15]: 2 µg/mL (≈ 4.44 µM) | MIC [16]: 2 µg/mL (≈ 4.44 µM) | MIC [17]: 2 µg/mL (≈ 4.44 µM) | MIC [18]: 2 µg/mL (≈ 4.44 µM) | MIC [19]: > 64 µg/mL | MIC [20]: 2 µg/mL (≈ 4.44 µM) | MIC [21]: 2 µg/mL (≈ 4.44 µM) | MIC [2]: 1 µg/mL (≈ 2.22 µM) | MIC [22]: > 64 µg/mL | MIC [23]: 2 µg/mL (≈ 4.44 µM) | MIC [24]: 2 µg/mL (≈ 4.44 µM) | MIC [25]: 1 µg/mL (≈ 2.22 µM)

Cc1[nH]c2ccccc2c1-c1nc(-c2ccc([N+](=O)[O-])cc2)c(-c2ccc([N+](=O)[O-])cc2)[nH]1
MIC [1]: > 64 µg/mL

Fc1ccc(-c2nc(-c3c[nH]c4ccc(Br)cc34)[nH]c2-c2ccccc2)cc1
MIC [1]: 2 µg/mL (≈ 4.63 µM) | MIC [2]: 2 µg/mL (≈ 4.63 µM)

Clc1ccc(-c2nc(-c3c[nH]c4ccc(Br)cc34)[nH]c2-c2ccccc2)cc1
MIC [1]: 1 µg/mL (≈ 2.23 µM) | MIC [2]: 1 µg/mL (≈ 2.23 µM)

Brc1ccc(-c2nc(-c3c[nH]c4ccc(Br)cc34)[nH]c2-c2ccc(Br)cc2)cc1
MIC [1]: > 64 µg/mL

O=[N+]([O-])c1ccc(-c2nc(-c3c[nH]c4ccc(Br)cc34)[nH]c2-c2ccc([N+](=O)[O-])cc2)cc1
MIC [1]: > 64 µg/mL

Cc1[nH]c2ccccc2c1-c1nc(-c2ccc([N+](=O)[O-])cc2)c(-c2ccccc2)[nH]1
MIC [1]: 8 µg/mL (≈ 20.3 µM) | MIC [2]: 8 µg/mL (≈ 20.3 µM)

Cc1ccc(-c2nc(-c3c[nH]c4ccc(Br)cc34)[nH]c2-c2ccc(C)cc2)cc1
MIC [1]: 2 µg/mL (≈ 4.52 µM) | MIC [2]: 4 µg/mL (≈ 9.04 µM)

Brc1ccc2[nH]cc(-c3nc(-c4ccc(-c5ccccc5)cc4)c(-c4ccccc4)[nH]3)c2c1
MIC [1]: 4 µg/mL (≈ 8.16 µM) | MIC [2]: 4 µg/mL (≈ 8.16 µM)

Cc1[nH]c2ccccc2c1-c1nc(-c2ccc(Cl)cc2)c(-c2ccccc2)[nH]1
MIC [1]: 8 µg/mL (≈ 20.8 µM) | MIC [2]: 8 µg/mL (≈ 20.8 µM)

Cc1ccc(-c2nc(-c3c(C)[nH]c4ccccc34)[nH]c2-c2ccc(C)cc2)cc1
MIC [1]: 8 µg/mL (≈ 21.2 µM) | MIC [2]: 8 µg/mL (≈ 21.2 µM)

Cc1[nH]c2ccccc2c1-c1nc(-c2ccc(Oc3ccccc3)cc2)c(-c2ccc(Oc3ccccc3)cc2)[nH]1
MIC [1]: > 64 µg/mL

Cc1[nH]c2ccccc2c1-c1nc(-c2ccc(N(C)C)cc2)c(-c2ccc(N(C)C)cc2)[nH]1
MIC [1]: 2 µg/mL (≈ 4.59 µM) | MIC [2]: 2 µg/mL (≈ 4.59 µM)

CC(=O)NC[C@H]1CN(c2ccc(N3CCOCC3)c(F)c2)C(=O)O1 [LINEZOLID]
MIC [1]: 1 µg/mL (≈ 2.96 µM)

Clc1ccc(-c2nc(-c3c[nH]c4ccc(Br)cc34)[nH]c2-c2ccc(Cl)cc2)cc1
MIC [1]: 2 µg/mL (≈ 4.14 µM) | MIC [2]: 2 µg/mL (≈ 4.14 µM)

Cc1ccc(-c2nc(-c3c(C)[nH]c4ccccc34)[nH]c2-c2ccccc2)cc1
MIC [1]: 4 µg/mL (≈ 11 µM) | MIC [2]: 4 µg/mL (≈ 11 µM)

Cc1[nH]c2ccccc2c1-c1nc(-c2ccc(Br)cc2)c(-c2ccccc2)[nH]1
MIC [1]: 4 µg/mL (≈ 9.34 µM) | MIC [2]: 4 µg/mL (≈ 9.34 µM)

CN[C@H](CC(C)C)C(=O)N[C@H]1C(=O)N[C@@H](CC(N)=O)C(=O)N[C@H]2C(=O)N[C@H]3C(=O)N[C@H](C(=O)N[C@H](C(=O)O)c4cc(O)cc(O)c4-c4cc3ccc4O)[C@H](O)c3ccc(c(Cl)c3)Oc3cc2cc(c3O[C@@H]2O[C@H](CO)[C@@H](O)[C@H](O)[C@H]2O[C@H]2C[C@](C)(N)[C@H](O)[C@H](C)O2)Oc2ccc(cc2Cl)[C@H]1O [VANCOMYCIN]
MIC [3]: 0.25 µg/mL (≈ 0.173 µM) | MIC [4]: 0.5 µg/mL (≈ 0.345 µM) | MIC [5]: 1 µg/mL (≈ 0.69 µM) | MIC [6]: 2 µg/mL (≈ 1.38 µM) | MIC [7]: > 64 µg/mL | MIC [8]: 1 µg/mL (≈ 0.69 µM) | MIC [9]: > 64 µg/mL | MIC [10]: 0.25 µg/mL (≈ 0.173 µM) | MIC [11]: 1 µg/mL (≈ 0.69 µM) | MIC [12]: > 64 µg/mL | MIC [13]: > 64 µg/mL | MIC [14]: 2 µg/mL (≈ 1.38 µM) | MIC [15]: 0.5 µg/mL (≈ 0.345 µM) | MIC [16]: 4 µg/mL (≈ 2.76 µM) | MIC [18]: > 64 µg/mL | MIC [19]: > 64 µg/mL | MIC [20]: 16 µg/mL (≈ 11 µM) | MIC [22]: > 64 µg/mL | MIC [24]: 1 µg/mL (≈ 0.69 µM) | MIC [25]: 1 µg/mL (≈ 0.69 µM)

Cc1ccc(-c2nc(-c3c[nH]c4ccc(Br)cc34)[nH]c2-c2ccccc2)cc1
MIC [1]: 2 µg/mL (≈ 4.67 µM) | MIC [2]: 2 µg/mL (≈ 4.67 µM)

Brc1ccc(-c2nc(-c3c[nH]c4ccc(Br)cc34)[nH]c2-c2ccccc2)cc1
MIC [1]: 2 µg/mL (≈ 4.06 µM) | MIC [2]: 2 µg/mL (≈ 4.06 µM)

Cc1[nH]c2ccccc2c1-c1nc(-c2ccc(F)cc2)c(-c2ccccc2)[nH]1
MIC [1]: 4 µg/mL (≈ 10.9 µM) | MIC [2]: 4 µg/mL (≈ 10.9 µM)

Brc1ccc2[nH]cc(-c3nc(-c4ccccc4)c(-c4ccccc4)[nH]3)c2c1
MIC [1]: 4 µg/mL (≈ 9.65 µM) | MIC [2]: 4 µg/mL (≈ 9.65 µM)

O=[N+]([O-])c1ccc(-c2nc(-c3c[nH]c4ccc(Br)cc34)[nH]c2-c2ccccc2)cc1
MIC [1]: > 64 µg/mL

CN(C)c1ccc(-c2nc(-c3c[nH]c4ccc(Br)cc34)[nH]c2-c2ccc(N(C)C)cc2)cc1
MIC [1]: 2 µg/mL (≈ 4 µM) | MIC [2]: 2 µg/mL (≈ 4 µM)

Cc1[nH]c2ccccc2c1-c1nc(-c2ccc(F)cc2)c(-c2ccc(F)cc2)[nH]1
MIC [1]: 4 µg/mL (≈ 10.4 µM) | MIC [2]: 4 µg/mL (≈ 10.4 µM)

Cc1[nH]c2ccccc2c1-c1nc(-c2ccc(Br)cc2)c(-c2ccc(Br)cc2)[nH]1
MIC [1]: 2 µg/mL (≈ 3.94 µM) | MIC [2]: 2 µg/mL (≈ 3.94 µM)
